Patent publication US12458630B2, “Combination therapy for cancer” (The Regents of the University of California, priority 2020, dated 2025)

How the values were obtained:
[1] = system: KC6141 mouse PDAC cells; assay: Cell viability assay (CCK-8); assay type: cell-based; conditions: WT and IKKα KD 6141 cells on ECM, 0.5 mM glucose, 3 days; EIPA, IPI549 600 nM, MBQ-167 500 nM
Experimental: Extracellular Matrix (ECM) Preparation. Skin fibroblasts were seeded on 6/12/96-well plates. One day after plating, cells were switched into DMEM (with pyruvate) with 10% dialysed FBS supplemented with or without 500 μM ^3H-proline and 100 μM Vitamin C. Cells were cultured for 6 days with media renewal every 24 h. After six days, skin fibroblasts were removed by washing in 1 ml or 500 μl or 100 μl per well PBS with 0.5% (v/v) Triton X-100 and 20 mM NH4OH. ECM was washed five times with PBS before plating KC6141 cells. The following day, KC6141 cells were switched into the indicated medium for 24 or 72 hrs.
Cell viability assay. Cell viability was determined with Cell Counting Kit-8 assay (CCK-8 assay kit, Glpbio). Cells were plated in 96-well plates at a density of 3000 cells (MIA PaCa-2) or 1500 cells (KC6141) per well and incubated overnight prior to treatment. EIPA (10 μM), MRT68921 (600 nM) or erlotinib (2 μM, Sigma) were added to the wells for 72 and 96 hrs. Next, 10 μL of CCK-8 was added to each well. The optical density was read at 450 nm using a microplate reader (FilterMax F5, Molecular Devices, USA) at day 0, 1, 2, 3, and 4. For glutamine-deprivation assays, cells in 96-well plates were rinsed briefly in PBS and incubated in the 0.2 mM glutamine. Glutamine-free DMEM medium was supplemented with 0.2 mM glutamine in the presence of 10% dialysed FBS and 25 mM HEPES. For some conditions, the medium was supplemented with a final concentration of 2% BSA (Fraction V, fatty-acid-, nuclease and protease-free, Calbiochem). For all experiments, media were replaced every 24 hrs. Viable cell counts were obtained using CCK-8 assay described as above.
In some embodiments, cells were plated in 96-well plates coated with or without ECM at a density of 3000 cells (MIA PaCa-2, 1444, 1305, COLO 357/FG) or 1500 cells (KC6141) per well and incubated overnight prior to treatment. EIPA (10.5 μM), IPI549 (600 nM), MBQ-167 (500 nM), MRT68921 (600 nM) or erlotinib (2 μM, Sigma), ML385 (10 μM, Sigma), HCQ (10 μM or 80 μM) or their combinations were added to the wells for 24, 72 or 96 hrs. Next, 10 μL of CCK-8 was added to each well. The optical density was read at 450 nm using a microplate reader (FilterMax F5, Molecular Devices, USA) at day 0, 1, 2, 3, and 4. For glutamine-deprivation assays, cells in 96-well plates were rinsed briefly in PBS and incubated in the 0.2 mM glutamine. Glutamine-free DMEM medium was supplemented with 0.2 mM glutamine in the presence of 10% dialyzed FBS and 25 mM HEPES. For glucose-deprivation assays, cells in 96-well plates were rinsed briefly in PBS and incubated in the 0.5 mM glucose. Glucose-free DMEM medium was supplemented with 0.5 mM glucose in the presence of 10% dialyzed FBS and 25 mM HEPES. For some conditions, the medium was supplemented with a final concentration of 2% BSA (Fraction V, fatty-acid-, nuclease and protease-free, Calbiochem). For all experiments, media were replaced every 24 hrs. Viable cell counts were obtained using CCK-8 assay described as above.

[2] = system: AKT phosphorylation; assay: Immunoblot of AKT phosphorylation; assay type: cell-based, human; conditions: NRF2(E79Q)-Myc-overexpressing MIA PaCa-2 cells, 600 nM IPI549
Experimental: Immunoblot and immunoprecipitation. Cells were harvested and lysed in RIPA buffer (50 mM Tris-HCl, pH 7.4, 150 mM NaCl, 1% Triton X-100, 1% Na deoxycholate, 0.1% SDS, 1 mM EDTA) supplemented with complete protease inhibitor cocktail. Proteins were resolved on SDS-polyacrylamide gels, and then transferred to a polyvinylidene difluoride membrane. After blocking with 5% (w/v) fat free milk, the membrane was stained with the corresponding primary antibodies followed by incubation with the appropriate secondary HRP-conjugated antibodies, and development with ECL. Immunoreactive bands were detected by automatic X-ray film processor or KwikQuant Imager.

## C[C@H](NC(=O)c1c(N)nn2cccnc12)c1cc2cccc(C#Cc3cnn(C)c3)c2c(=O)n1-c1ccccc1 [IPI549]
[1]
  cell viability enhanced by extracellular matrix (ECM): suppressed
[2]
  AKT phosphorylation: suppression of AKT phosphorylation
